This note sets out measurements from patent US20070122849A1, “Rhesus monkey P2X7 purinergic receptor and uses thereof” (priority 2005, published 2007).

Test [1] concerns rhP2X7 receptor. Kind of test: rhP2X7 receptor activity in stably transfected HEK293 cells (calcium flux and change in membrane potential after agonist activation). The following applies: recombinant rhP2X7 receptor. It counts as cell-based, Macaca mulatta (Rhesus monkey). Here is the method: RhP2X7 receptor activity in the stably transfected HEK293 cells was monitored by measuring calcium flux and change in membrane potential subsequent to activation with potent agonists (ATP, Bz-ATP). The membrane potential was measured using the following protocol.
Stably transfected recombinant HEK293 cells were plated into the wells of a 384-well Costar plates (25 μL/well) in growth medium (DMEM without pyruvate (Invitrogen-11965-084) with 10% FBS (Invitrogen 10082-139), 100 U/ml P/S (Invitrogen 15140-148), and 100 ug/mL hygromycin (Roche, 843555) and the plates incubated for 24 hours at 37° C., 5% CO2. Then, 25 μL of membrane potential buffer (Blue dye, Molecular Devices, Sunnyvale, Calif.) was added to the medium and the cells incubated for 30 minutes at 37° C., 5% CO2. Next, about 30 to 100 nL of either analyte or antagonist control or 10 μL agonist 3′-O-(4-benzoylbenzoyl)-ATP (Bz-ATP) (at an EC80) was added to the medium in separate wells of the plates. After incubating the plates for 30 minutes at 37° C., 5% CO2, fluorescence was read using a fluorometric plate reader (FLIPR, Molecular Devices). Data were analyzed using the formula EC50=using (Max−Min); Signal to Noise Ratio (S/B)=Max/Min; Z′ Factor=1−[3*SD of Max)+(3*SD of Min)/(mean of Max−mean of Min).
Calcium flux was measured using the following FLIPR Calcium Flux Assay protocol (Molecular Devices, Sunnyvale, Calif.). […]
(Calcium flux is commonly read through the fluorescence of an indicator in the cells.)

Test [2] relates to rhP2X7 receptor. Kind of test: calcium flux protocol for high throughput screen using cells that express the rhP2X7 receptor. The format is cell-based, Macaca mulatta (Rhesus monkey). The following applies: agonist used in the example screening protocol; source of the value not stated. Here is the method:
The following is an example of a calcium flux protocol that can be used in a high throughput screen using cells that express the rhP2X7 receptor. The cells are grown to about 75-85% confluence, rinsed with DPBS (5.33 mM KCl, 0.44 mM KH2PO4, 0.3 mM Na2HPO4, 4 mM NaHCO3, 0.1% Glucose, 138 mM N-methyl glucamine), and dissociated with 0.05% trypsin. Then, about 20,000 cells are plated into multiple of the wells of multiwell plates in complete growth medium. The cells are incubated at 37° C. and 5% CO2 for about 20 to 24 hours. Next, about 20 μL FLUO-4 loading buffer (Invitrogen) is added to each of the wells and the cells incubated at RT for 60 minutes. Then, about 10 μL aliquots of each analyte to be tested (final concentration in DMSO about 0.1%) diluted in TR-40 quenching solution (Sigma #T2397) is added to a well containing cells. Controls include antagonists such as KN-62 and Ox-ATP and agonists such as Bz-ATP (at an EC80). The cells are incubated for about 10 minutes at RT.

Regarding `Nc1ncnc2c1ncn2[C@@H]1O[C@H](COP(=O)(O)OP(=O)(O)OP(=O)(O)O)[C@@H](OC(=O)c2ccc(C(=O)c3ccccc3)cc2)[C@H]1O` [Bz-ATP, 3′-O-(4-benzoylbenzoyl)-ATP], the EC50 in the test with rhP2X7 receptor [1] is approximately 150 µM.
Still for that read-out and setting: as for `Nc1ncnc2c1ncn2[C@@H]1O[C@H](COP(=O)(O)OP(=O)(O)OP(=O)(O)O)[C@@H](O)[C@H]1O` [ATP], the figure is approximately 3000 µM.
Regarding `Nc1ncnc2c1ncn2[C@@H]1O[C@H](COP(=O)(O)CP(=O)(O)OP(=O)(O)O)[C@@H](O)[C@H]1O` [a,b-methylene ATP], in the test with rhP2X7 receptor [2], the EC50 is 350 µM.

A word on the EC50: it is the concentration giving half of the maximal effect.
